Assay results published in PMC7948503, “Optimization of a peptide ligand for the adhesion GPCR ADGRG2 provides a potent tool to explore receptor biology” (The Journal of Biological Chemistry, 2020).
Non-standard residues stand in square brackets, D forms with d. Residues, ends and D or L forms follow the SMILES beside them. *: point of attachment. FITC = O=C1OC2(c3ccc(O)cc3Oc3cc(O)ccc32)c2ccc(NC(=S)*)cc21; Phe(4-Me) = Cc1ccc(C[C@H](N)C(=O)O)cc1

How the values were obtained:
Assay in all cases: BRET binding of FITC-VPM-p15
Rluc-ADGRG2-ΔGPS-β F764A = target: T1, Rluc-ADGRG2-ΔGPS-β F764A (Mus musculus, UniProt Q8CJ12, F778A); details: mutant F764A
T1 construct: the entire ECD (including the entire GPS motif) was removed (ADGRG2-ΔGPS-β); expressed in transfected cells; host or cells: HEK293
T1 sequence (Q8CJ12 618-1009 F778A limits assumed): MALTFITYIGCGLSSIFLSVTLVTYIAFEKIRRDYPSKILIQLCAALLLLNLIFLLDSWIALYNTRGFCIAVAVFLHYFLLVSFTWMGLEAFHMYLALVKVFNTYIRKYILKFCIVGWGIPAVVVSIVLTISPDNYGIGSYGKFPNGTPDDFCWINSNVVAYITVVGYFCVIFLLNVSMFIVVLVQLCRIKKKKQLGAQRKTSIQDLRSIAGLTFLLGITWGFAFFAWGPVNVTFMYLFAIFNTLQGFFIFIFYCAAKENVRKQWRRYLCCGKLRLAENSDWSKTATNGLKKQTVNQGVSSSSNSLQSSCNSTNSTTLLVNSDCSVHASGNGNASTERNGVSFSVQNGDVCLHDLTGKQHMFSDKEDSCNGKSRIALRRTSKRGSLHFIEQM
Method: (§1) The binding capacities of ADGRG2 WT or its mutants for VPM-p15 were determined by BRET assay, which has been used in previous studies ([27], [28], [29]). We fused the N terminus of ADGRG2 with a Rluc fragment and coupled FITC to the C terminus of VPM-p15 to facilitate BRET measurement. We stimulated the HEK293 cells transfected with Rluc-ADGRG2-ΔGPS-β wildtype (WT) or mutants by increasing the concentration of FITC-conjugated VPM-p15, and their binding abilities were determined by fitting the data with the saturation curves.
(§2) In the detection of binding capacities of ADGRG2 WT or its mutants for VPM-p15, HEK293 cells were transfected with Rluc-ADGRG2-ΔGPS-β or mutants. Transfected cells were stimulated by increasing the concentration of FITC-conjugated VPM-p15. Binding capacities were determined by BRET, EC50 values of ADGRG2 WT and its mutants for binding VPM-p15 were calculated by GraphPad, and data were normalized by EC50 of WT.

Rluc-ADGRG2-ΔGPS-β F828A = target: T2, Rluc-ADGRG2-ΔGPS-β F828A (Mus musculus, UniProt Q8CJ12, F842A); details: mutant F828A
T2 construct: expressed in transfected cells; host or cells: HEK293
T2 sequence (Q8CJ12 614-1009 F842A): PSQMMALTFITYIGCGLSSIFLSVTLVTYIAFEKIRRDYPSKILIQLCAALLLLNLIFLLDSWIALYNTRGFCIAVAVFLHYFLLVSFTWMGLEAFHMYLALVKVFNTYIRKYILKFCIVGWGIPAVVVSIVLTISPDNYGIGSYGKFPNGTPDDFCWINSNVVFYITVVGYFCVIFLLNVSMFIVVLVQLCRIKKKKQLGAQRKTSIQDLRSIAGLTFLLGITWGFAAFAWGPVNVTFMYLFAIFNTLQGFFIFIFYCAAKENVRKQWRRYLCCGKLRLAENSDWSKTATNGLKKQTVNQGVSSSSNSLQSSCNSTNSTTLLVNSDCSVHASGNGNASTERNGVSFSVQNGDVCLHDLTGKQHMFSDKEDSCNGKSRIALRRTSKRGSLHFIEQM
Method: as §1, §2

Rluc-ADGRG2-ΔGPS-β F845A = target: T3, Rluc-ADGRG2-ΔGPS-β F845A (Mus musculus, UniProt Q8CJ12, F859A); details: mutant F845A
T3 construct: expressed in transfected cells; host or cells: HEK293
T3 sequence (Q8CJ12 614-1009 F859A): as the sequence (Q8CJ12 614-1009 F842A) above, with A229F, F246A counted along it
Method: as §1, §2

Rluc-ADGRG2-ΔGPS-β L679A = target: T4, Rluc-ADGRG2-ΔGPS-β L679A (Mus musculus, UniProt Q8CJ12, L693A); details: mutant L679A
T4 construct: the entire ECD (including the entire GPS motif) was removed (ADGRG2-ΔGPS-β); expressed in transfected cells; host or cells: HEK293
T4 sequence (Q8CJ12 618-1009 L693A limits assumed): as the sequence (Q8CJ12 618-1009 F778A limits assumed) above, with L76A, A161F counted along it
Method: as §1, §2

Rluc-ADGRG2-ΔGPS-β L683A = target: T5, Rluc-ADGRG2-ΔGPS-β L683A (Mus musculus, UniProt Q8CJ12, L697A); details: mutant L683A
T5 construct: the entire ECD (including the entire GPS motif) was removed (ADGRG2-ΔGPS-β); expressed in transfected cells; host or cells: HEK293
T5 sequence (Q8CJ12 618-1009 L697A limits assumed): as the sequence (Q8CJ12 618-1009 F778A limits assumed) above, with L80A, A161F counted along it
Method: as §1, §2

Rluc-ADGRG2-ΔGPS-β V762A = target: T6, Rluc-ADGRG2-ΔGPS-β V762A (Mus musculus, UniProt Q8CJ12, V776A); details: mutant V762A
T6 construct: the entire ECD (including the entire GPS motif) was removed (ADGRG2-ΔGPS-β); expressed in transfected cells; host or cells: HEK293
T6 sequence (Q8CJ12 618-1009 V776A limits assumed): as the sequence (Q8CJ12 618-1009 F778A limits assumed) above, with V159A, A161F counted along it
Method: as §1, §2

Rluc-ADGRG2-ΔGPS-β V834A = target: T7, Rluc-ADGRG2-ΔGPS-β V834A (Mus musculus, UniProt Q8CJ12, V848A); details: mutant V834A
T7 construct: expressed in transfected cells; host or cells: HEK293
T7 sequence (Q8CJ12 614-1009 V848A): as the sequence (Q8CJ12 614-1009 F842A) above, with A229F, V235A counted along it
Method: as §1, §2

Rluc-ADGRG2-ΔGPS-β Y666A = target: T8, Rluc-ADGRG2-ΔGPS-β Y666A (Mus musculus, UniProt Q8CJ12, Y680A); details: mutant Y666A
T8 construct: the entire ECD (including the entire GPS motif) was removed (ADGRG2-ΔGPS-β); expressed in transfected cells; host or cells: HEK293
T8 sequence (Q8CJ12 618-1009 Y680A limits assumed): as the sequence (Q8CJ12 618-1009 F778A limits assumed) above, with Y63A, A161F counted along it
Method: as §1, §2

Rluc-ADGRG2-ΔGPS-β Y765A = target: T9, Rluc-ADGRG2-ΔGPS-β Y765A (Mus musculus, UniProt Q8CJ12, Y779A); details: mutant Y765A
T9 construct: the entire ECD (including the entire GPS motif) was removed (ADGRG2-ΔGPS-β); expressed in transfected cells; host or cells: HEK293
T9 sequence (Q8CJ12 618-1009 Y779A limits assumed): as the sequence (Q8CJ12 618-1009 F778A limits assumed) above, with A161F, Y162A counted along it
Method: as §1, §2

[1] = Kd(mutated ADGRG2-ΔGPS-β)/Kd(WT)

Which Fmut (Rluc-ADGRG2-ΔGPS-β F764A; [1]) does the source give for `CC[C@H](C)[C@H](NC(=O)CNC(=O)[C@H](Cc1ccc(C)cc1)NC(=O)[C@H](CO)NC(=O)[C@@H](N)C(C)C)C(=O)N[C@@H](CC(C)C)C(=O)N[C@@H](CC(C)C)C(=O)N[C@@H](CC(=O)O)C(=O)N[C@@H](CC(C)C)C(=O)N[C@@H](CO)C(=O)N[C@@H](CCCNC(=N)N)C(=O)N[C@H](C(=O)N[C@@H](CO)C(=O)N[C@@H](CC(C)C)C(=O)N1CCC[C@H]1C(=O)N[C@@H](CCCCNC(=S)Nc1ccc2c(c1)C(=O)OC21c2ccc(O)cc2Oc2cc(O)ccc21)C(=O)O)[C@@H](C)O` [FITC-VPM-p15] (H-VS[Phe(4-Me)]GILLDLSRTSLPK(FITC)-OH; N-terminus and C-terminus assumed) here?
The Fmut was 1.183.

And the Bmax (Rluc-ADGRG2-ΔGPS-β F764A; binding Bmax (BRET))?
The Bmax was 0.814±0.039.

And the Fmut (Rluc-ADGRG2-ΔGPS-β F828A; [1])?
The Fmut was 1.247.

What about the Bmax (Rluc-ADGRG2-ΔGPS-β F828A; binding Bmax (BRET)) of the same compound?
The Bmax was 0.706±0.006.

What about the Fmut (Rluc-ADGRG2-ΔGPS-β F845A; [1]) of the same compound?
Its Fmut is 1.452.

What about the Bmax (Rluc-ADGRG2-ΔGPS-β F845A; binding Bmax (BRET)) of the same compound?
The Bmax was 0.749±0.071.

What about the Fmut (Rluc-ADGRG2-ΔGPS-β L679A; [1]) of the same compound?
Its Fmut is 1.242.

And the Bmax (Rluc-ADGRG2-ΔGPS-β L679A; binding Bmax (BRET))?
The Bmax was 0.7804±0.017.

And the Fmut (Rluc-ADGRG2-ΔGPS-β L683A; [1])?
The Fmut was 1.240.

And the Bmax (Rluc-ADGRG2-ΔGPS-β L683A; binding Bmax (BRET))?
Its Bmax is 0.7887±0.022.

What about the Fmut (Rluc-ADGRG2-ΔGPS-β V762A; [1]) of the same compound?
Its Fmut is 1.268.

And the Bmax (Rluc-ADGRG2-ΔGPS-β V762A; binding Bmax (BRET))?
Its Bmax is 0.798±0.021.

And the Fmut (Rluc-ADGRG2-ΔGPS-β V834A; [1])?
Its Fmut is 1.196.

What about the Bmax (Rluc-ADGRG2-ΔGPS-β V834A; binding Bmax (BRET)) of the same compound?
Its Bmax is 0.789±0.016.

What about the Fmut (Rluc-ADGRG2-ΔGPS-β Y666A; [1]) of the same compound?
The Fmut was 0.895.

What about the Bmax (Rluc-ADGRG2-ΔGPS-β Y666A; binding Bmax (BRET)) of the same compound?
The Bmax was 0.809±0.029.

And the Fmut (Rluc-ADGRG2-ΔGPS-β Y765A; [1])?
The Fmut was 0.967.

What about the Bmax (Rluc-ADGRG2-ΔGPS-β Y765A; binding Bmax (BRET)) of the same compound?
Its Bmax is 0.796±0.013.
